Source: patent publication EP4722212A1, “NOVEL COMPOUND FOR INHIBITING PROTEIN KINASES AND PHARMACEUTICAL COMPOSITION COMPRISING SAME” (Magicbullettherapeutics Co., Ltd., priority 2023, dated 2024)

What was measured:
ACK1 = target: T1, ACK1 (Homo sapiens, UniProt Q07912); assay: Enzyme activity inhibition (Reaction Biology); type: biochemical
T1 construct: purchased Reaction Biology (RBC)
Method: (§1) [* <10 nM: A, <100 nM: B, >100 nM: C]. [Table 7]

BMX = target: T2, BMX (Homo sapiens, UniProt P51813); assay: Enzyme activity inhibition (Reaction Biology); type: biochemical
T2 construct: purchased Reaction Biology (RBC)
T2 sequence (P51813 1-675): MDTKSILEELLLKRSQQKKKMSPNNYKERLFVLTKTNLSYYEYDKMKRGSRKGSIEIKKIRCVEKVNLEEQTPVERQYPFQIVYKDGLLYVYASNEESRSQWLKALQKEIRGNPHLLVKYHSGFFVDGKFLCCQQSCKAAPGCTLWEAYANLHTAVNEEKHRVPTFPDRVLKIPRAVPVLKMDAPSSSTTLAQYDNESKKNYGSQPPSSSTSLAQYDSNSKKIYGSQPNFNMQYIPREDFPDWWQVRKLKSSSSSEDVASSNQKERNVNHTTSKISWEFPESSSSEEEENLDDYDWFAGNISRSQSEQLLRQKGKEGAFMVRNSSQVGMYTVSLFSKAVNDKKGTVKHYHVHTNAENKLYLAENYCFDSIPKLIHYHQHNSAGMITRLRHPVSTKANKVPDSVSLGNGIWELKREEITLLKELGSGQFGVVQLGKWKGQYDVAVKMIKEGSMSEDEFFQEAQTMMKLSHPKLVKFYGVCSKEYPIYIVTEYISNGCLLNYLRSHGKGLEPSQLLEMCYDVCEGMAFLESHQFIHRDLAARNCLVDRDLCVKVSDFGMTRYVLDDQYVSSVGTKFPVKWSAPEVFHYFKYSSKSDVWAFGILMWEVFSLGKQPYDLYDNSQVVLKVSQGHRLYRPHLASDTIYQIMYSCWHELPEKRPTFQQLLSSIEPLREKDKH
Method: as §1

Src = target: T3, Src (Homo sapiens, UniProt P12931); assay: Enzyme activity inhibition (Reaction Biology); type: biochemical
T3 construct: purchased Reaction Biology (RBC)
Method: as §1

22Rv1 = assay: Cell line inhibition analysis (CCK-8, 72 h); type: cell-based; conditions: Homo sapiens; 22Rv1, 72 hours; read-out: Cell growth inhibition GI50 22Rv1
Method: (§2) C4-2B and 22Rv1 cells were purchased from ATCC and cultured according to the manufacturer's instructions. The cells were seeded in 96-well plates at 7×10^3cells/100 µl/well and allowed to attach for one day. After removing the culture medium, 90 µl/well of fresh culture medium was added, followed by addition of 10 µl/well of culture medium containing compounds at nine concentrations (0.076-500 µM) serially diluted 3-fold and DMSO control to achieve final concentrations of 0-50 µM, and then cultured for 72 hours in a 37 °C CO2 incubator. Cell proliferation after 72 hours was assessed by adding 10 µl/well of CCK-8 solution, orbital shaking for 30 seconds, then incubating at 37 °C CO2 incubator for 2 hours and measuring absorbance at 450 nm using a microplate reader. The measured absorbance values were corrected by subtracting the absorbance of wells containing only culture medium and CCK-8 solution, and GI50 values were calculated using GraphPad Prism 8 software.
(§3) Meanwhile, in a separate 96-well plate, cells were seeded at 7 × 10^3 cells/100 µl/well, allowed to attach for one day, CCK-8 solution was added, and absorbance was measured to establish the 'Growth (%) = 0' value.

C4-2B = assay: Cell line inhibition analysis (CCK-8, 72 h); type: cell-based; conditions: read-out: Cell growth inhibition GI50 C4-2B
Method: as §2, §3

AsPC-1 = assay: Cell line inhibition analysis (CCK-8, 72 h); type: cell-based; conditions: Homo sapiens, ASPC1; read-out: Cell growth inhibition GI50 AsPC-1
Method: as §2, §3
(§4) Furthermore, experiments were conducted on A172, A549, HCI-H460, AsPC-1, MIA-Paca-2, DLD-1, HCT-116, HT-29, SW480, SW620, MDA-MB-231, and SKOV3 cell lines using the same method, with results shown in Tables 9 and 10 below [* <1 µM: A, <5 µM: B, <10 µM: C, >10 µM: D].

HCT-116 = assay: Cell line inhibition analysis (CCK-8, 72 h); type: cell-based; conditions: Homo sapiens, read-out: Cell growth inhibition GI50 HCT-116
Method: as §2, §3, §4

A172 = assay: Cell line inhibition analysis (CCK-8, 72 h); type: cell-based; conditions: Homo sapiens, A 172; read-out: Cell growth inhibition GI50 A172
Method: as §2, §3, §4

A549 = assay: Cell line inhibition analysis (CCK-8, 72 h); type: cell-based; conditions: Homo sapiens, read-out: Cell growth inhibition GI50 A549
Method: as §2, §3, §4

HT-29 = assay: Cell line inhibition analysis (CCK-8, 72 h); type: cell-based; conditions: Homo sapiens, read-out: Cell growth inhibition GI50 HT-29
Method: as §2, §3, §4

SW480 = assay: Cell line inhibition analysis (CCK-8, 72 h); type: cell-based; conditions: Homo sapiens, read-out: Cell growth inhibition GI50 SW480
Method: as §2, §3, §4

SW620 = assay: Cell line inhibition analysis (CCK-8, 72 h); type: cell-based; conditions: Homo sapiens, SW-620; read-out: Cell growth inhibition GI50 SW620
Method: as §2, §3, §4

T3 sequence (P12931 whole entry): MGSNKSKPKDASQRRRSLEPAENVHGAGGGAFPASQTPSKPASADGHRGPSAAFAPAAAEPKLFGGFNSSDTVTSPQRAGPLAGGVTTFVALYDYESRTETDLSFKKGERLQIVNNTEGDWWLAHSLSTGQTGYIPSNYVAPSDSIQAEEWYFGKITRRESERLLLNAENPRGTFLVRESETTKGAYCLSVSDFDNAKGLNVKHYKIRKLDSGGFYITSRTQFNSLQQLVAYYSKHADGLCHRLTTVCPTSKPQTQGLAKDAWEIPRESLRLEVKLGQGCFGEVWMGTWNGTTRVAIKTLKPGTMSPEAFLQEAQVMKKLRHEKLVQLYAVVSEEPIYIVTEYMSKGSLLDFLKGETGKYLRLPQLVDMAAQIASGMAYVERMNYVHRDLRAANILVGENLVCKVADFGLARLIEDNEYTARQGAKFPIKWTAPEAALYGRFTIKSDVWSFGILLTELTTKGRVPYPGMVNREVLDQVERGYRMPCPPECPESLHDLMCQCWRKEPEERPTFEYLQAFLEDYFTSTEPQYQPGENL
T1 sequence (Q07912 whole entry): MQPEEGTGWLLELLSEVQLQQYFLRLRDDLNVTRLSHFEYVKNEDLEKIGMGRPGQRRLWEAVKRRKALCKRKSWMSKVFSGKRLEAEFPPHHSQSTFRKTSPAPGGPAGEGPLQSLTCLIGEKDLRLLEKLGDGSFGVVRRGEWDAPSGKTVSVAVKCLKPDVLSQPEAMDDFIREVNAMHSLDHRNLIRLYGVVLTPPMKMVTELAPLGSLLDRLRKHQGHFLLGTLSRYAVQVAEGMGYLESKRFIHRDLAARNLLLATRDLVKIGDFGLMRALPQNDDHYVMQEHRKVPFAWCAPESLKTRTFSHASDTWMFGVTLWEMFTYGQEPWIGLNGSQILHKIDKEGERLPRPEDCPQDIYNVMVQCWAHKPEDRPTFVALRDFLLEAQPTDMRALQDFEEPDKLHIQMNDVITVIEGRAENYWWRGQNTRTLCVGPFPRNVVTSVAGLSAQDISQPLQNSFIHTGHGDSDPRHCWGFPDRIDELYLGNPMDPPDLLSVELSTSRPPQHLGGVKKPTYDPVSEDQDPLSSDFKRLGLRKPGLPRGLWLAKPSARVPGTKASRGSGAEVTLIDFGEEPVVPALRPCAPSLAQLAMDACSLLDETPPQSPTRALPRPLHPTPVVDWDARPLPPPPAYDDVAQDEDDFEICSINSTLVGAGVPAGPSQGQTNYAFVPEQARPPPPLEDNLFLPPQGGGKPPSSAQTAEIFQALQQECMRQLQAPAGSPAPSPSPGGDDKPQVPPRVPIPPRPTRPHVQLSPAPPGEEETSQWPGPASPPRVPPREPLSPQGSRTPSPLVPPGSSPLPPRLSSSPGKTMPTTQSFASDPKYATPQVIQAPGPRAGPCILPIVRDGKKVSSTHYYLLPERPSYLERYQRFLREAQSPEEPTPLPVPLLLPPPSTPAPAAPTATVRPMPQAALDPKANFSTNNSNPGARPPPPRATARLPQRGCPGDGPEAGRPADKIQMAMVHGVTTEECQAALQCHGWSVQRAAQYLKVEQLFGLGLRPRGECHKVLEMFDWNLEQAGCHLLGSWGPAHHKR

COc1cc(C(=O)Nc2ccc(C)c(N3Cc4cnc(N)nc4C4(CC4)C3=O)c2)cc(C(F)(F)F)c1 [Compound 19, N-(3-(2'-amino-7'-oxo-5'H-spiro[cyclopropane-1,8'-pyrido[4,3-d]pyrimidine]-6'(7'H)-yl)-4-methylphenyl)-3-methoxy-5-(trifluoromethyl)benzamide] showed an IC50 (ACK1) of under 10 nM, an IC50 (BMX) of under 10 nM and an IC50 (Src) of under 10 nM. The GI50 (22Rv1) was 1000 to 5000 nM and the GI50 (C4-2B) was 1000 to 5000 nM.

With Cc1ccc(NC(=O)c2cc(N3CCOCC3)cc(C(F)(F)F)c2)cc1N1Cc2cnc(N)nc2C2(CC2)C1=O [Compound 29, N-(3-(2'-amino-7'-oxo-5'H-spiro[cyclopropane-1,8'-pyrido[4,3-d]pyrimidine]-6'(7'H)-yl)-4-methylphenyl)-3-morpholino-5-(trifluoromethyl)benzamide] the IC50 (ACK1) was 10 to 100 nM, the IC50 (BMX) was under 10 nM and the IC50 (Src) was under 10 nM. It also gave a GI50 (C4-2B) of 1000 to 5000 nM.

COCCN(C)c1cc(C(=O)Nc2ccc(C)c(N3Cc4cnc(N)nc4C4(CC4)C3=O)c2)cc(C(F)(F)F)c1 [Compound 31, N-(3-(2'-amino-7'-oxo-5'H-spiro[cyclopropane-1,8'-pyrido[4,3-d]pyrimidine]-6'(7'H)-yl)-4-methylphenyl)-3-((2-methoxyethyl)(methyl)amino)-5-(trifluoromethyl)benzamide] showed an IC50 (ACK1) of 10 to 100 nM, an IC50 (BMX) of under 10 nM and an IC50 (Src) of 10 to 100 nM. For the same compound, the GI50 (C4-2B) was 1000 to 5000 nM.

Compound COc1ccc(-c2cc(C(=O)Nc3ccc(C)c(N4Cc5cnc(N)nc5C5(CC5)C4=O)c3)cc(C(F)(F)F)c2)cc1 [Compound 20, N-(3-(2'-amino-7'-oxo-5'H-spiro[cyclopropane-1,8'-pyrido[4,3-d]pyrimidine]-6'(7'H)-yl)-4-methylphenyl)-4'-methoxy-5-(trifluoromethyl)-[1,1'-biphenyl]-3-carboxamide] has an IC50 (ACK1) of 10 to 100 nM, an IC50 (BMX) of 10 to 100 nM and an IC50 (Src) of 10 to 100 nM. It also gave a GI50 (C4-2B) of under 1000 nM.

With Cc1ccc(NC(=O)c2cccc(C(F)(F)F)c2)cc1N1Cc2cnc(Nc3ccc(CN4CCN(C)CC4)cc3)nc2C2(CC2)C1=O [Compound 43, N-(4-methyl-3-(2'-((4-((4-methylpiperazin-1-yl)methyl)phenyl)amino)-7'-oxo-5'H-spiro[cyclopropane-1,8'-pyrido[4,3-d]pyrimidine]-6'(7'H)-yl)phenyl)-3-(trifluoromethyl)benzamide] the GI50 (AsPC-1) was under 1000 nM and the GI50 (HCT-116) was under 1000 nM.

Compound Cc1ccc(NC(=O)c2cncc(C(F)(F)F)c2)cc1N1Cc2cnc(N[C@@H](C)CO)nc2C2(CC2)C1=O [Compound 131, (S)-N-(3-(2'-((1-hydroxypropan-2-yl)amino)-7'-oxo-5'H-spiro[cyclopropane-1,8'-pyrido[4,3-d]pyrimidine]-6'(7'H)-yl)-4-methylphenyl)-5-(trifluoromethyl)nicotinamide] has a GI50 (A172) of 1000 to 5000 nM, a GI50 (A549) of over 10000 nM and a GI50 (HT-29) of over 10000 nM.

For Cc1ccc(NC(=O)c2cccc(C(F)(F)F)c2)cc1N1Cc2cnc(NCCO)nc2C2(CC2)C1=O [Compound 126, N-(3-(2'-((2-hydroxyethyl)amino)-7'-oxo-5'H-spiro[cyclopropane-1,8'-pyrido[4,3-d]pyrimidine]-6'(7'H)-yl)-4-methylphenyl)-3-(trifluoromethyl)benzamide], the GI50 (A172) was 1000 to 5000 nM, the GI50 (A549) was 1000 to 5000 nM and the GI50 (HT-29) was 5000 to 10000 nM.

Cc1ccc(NC(=O)c2ccc(F)c(C(F)(F)F)c2)cc1N1Cc2cnc(N)nc2C2(CC2)C1=O [Compound 4, N-(3-(2'-amino-7'-oxo-5'H-spiro[cyclopropane-1,8'-pyrido[4,3-d]pyrimidine]-6'(7'H)-yl)-4-methylphenyl)-4-fluoro-3-(trifluoromethyl)benzamide] was tested, and the GI50 (22Rv1) was 1000 to 5000 nM and the GI50 (C4-2B) was 1000 to 5000 nM.

In the case of Cc1ccc(NC(=O)c2cc(C(F)(F)F)ccc2Cl)cc1N1Cc2cnc(N)nc2C2(CC2)C1=O [Compound 25, N-(3-(2'-amino-7'-oxo-5'H-spiro[cyclopropane-1,8'-pyrido[4,3-d]pyrimidine]-6'(7'H)-yl)-4-methylphenyl)-2-chloro-5-(trifluoromethyl)benzamide], the IC50 (ACK1) is reported as 10 to 100 nM, the IC50 (BMX) is reported as over 100 nM and the IC50 (Src) is reported as over 100 nM. It also gave a GI50 (C4-2B) of over 10000 nM.

In the case of Cc1ccc(NC(=O)c2cc(Cl)cc(C(F)(F)F)c2)cc1N1Cc2cnc(N)nc2C2(CC2)C1=O [Compound 26, N-(3-(2'-amino-7'-oxo-5'H-spiro[cyclopropane-1,8'-pyrido[4,3-d]pyrimidine]-6'(7'H)-yl)-4-methylphenyl)-3-chloro-5-(trifluoromethyl)benzamide], the IC50 (ACK1) is reported as 10 to 100 nM, the IC50 (BMX) is reported as under 10 nM and the IC50 (Src) is reported as under 10 nM. It also gave a GI50 (22Rv1) of under 1000 nM and a GI50 (C4-2B) of under 1000 nM.

With Cc1ccc(NC(=O)c2cccc(C(F)(F)F)c2)cc1N1Cc2cnc(Nc3ccc(N4CCN(C)CC4)cc3)nc2C2(CC2)C1=O [Compound 38, N-(4-methyl-3-(2'-((4-(4-methylpiperazin-1-yl)phenyl)amino)-7'-oxo-5'H-spiro[cyclopropane-1,8'-pyrido[4,3-d]pyrimidine]-6'(7'H)-yl)phenyl)-3-(trifluoromethyl)benzamide] the GI50 (AsPC-1) was under 1000 nM, the GI50 (HCT-116) was under 1000 nM and the GI50 (SW480) was under 1000 nM. For the same compound, the GI50 (SW620) was under 1000 nM.

Cc1ccc(NC(=O)c2ccc(Cl)c(C(F)(F)F)c2)cc1N1Cc2cnc(N)nc2C2(CC2)C1=O [Compound 5, N-(3-(2'-amino-7'-oxo-5'H-spiro[cyclopropane-1,8'-pyrido[4,3-d]pyrimidine]-6'(7'H)-yl)-4-methylphenyl)-4-chloro-3-(trifluoromethyl)benzamide] was tested, and the GI50 (22Rv1) was 1000 to 5000 nM and the GI50 (C4-2B) was 1000 to 5000 nM.

Cc1cc(Nc2ncc3c(n2)C2(CC2)C(=O)N(c2cc(NC(=O)c4cccc(C(F)(F)F)c4)ccc2C)C3)n(C)n1 [Compound 1, N-(3-(2'-((1,3-dimethyl-1H-pyrazol-5-yl)amino)-7'-oxo-5'H-spiro[cyclopropane-1,8'-pyrido[4,3-d]pyrimidin]-6'(7'H)-yl)-4-methylphenyl)-3-(trifluoromethyl)benzamide] showed an IC50 (ACK1) of under 10 nM, an IC50 (BMX) of under 10 nM and an IC50 (Src) of under 10 nM. For the same compound, the GI50 (C4-2B) was 1000 to 5000 nM.

Work on Cc1ccc(NC(=O)c2cc(N3CCOCC3)cc(C(F)(F)F)c2)cc1N1Cc2cnc(NC3CC3)nc2C2(CC2)C1=O [Compound 28, N-(3-(2'-(cyclopropylamino)-7'-oxo-5'H-spiro[cyclopropane-1,8'-pyrido[4,3-d]pyrimidine]-6'(7'H)-yl)-4-methylphenyl)-3-morpholino-5-(trifluoromethyl)benzamide] yielded an IC50 (ACK1) of 10 to 100 nM, an IC50 (BMX) of under 10 nM and an IC50 (Src) of over 100 nM. For the same compound, the GI50 (C4-2B) was 1000 to 5000 nM, the GI50 (AsPC-1) was 5000 to 10000 nM and the GI50 (HCT-116) was under 1000 nM. The GI50 (SW480) was 1000 to 5000 nM and the GI50 (SW620) was 1000 to 5000 nM.

Work on Cc1cn(-c2cc(C(=O)Nc3ccc(C)c(N4Cc5cnc(N)nc5C5(CC5)C4=O)c3)cc(C(F)(F)F)c2)cn1 [Compound 6, N-(3-(2'-amino-7'-oxo-5'H-spiro[cyclopropane-1,8'-pyrido[4,3-d]pyrimidine]-6'(7'H)-yl)-4-methylphenyl)-3-(4-methyl-1H-imidazol-1-yl)-5-(trifluoromethyl)benzamide] yielded an IC50 (ACK1) of under 10 nM, an IC50 (BMX) of under 10 nM and an IC50 (Src) of under 10 nM. The GI50 (22Rv1) was under 1000 nM and the GI50 (C4-2B) was 1000 to 5000 nM.
